From patent US12539281B2 (priority 2021, dated 2026)

How the values were obtained:
tight junction proteins = conditions: immediately after IA EA is administered
Text: The membrane and cytosolic proteins are extracted with a MEM-PER™ Plus Membrane Protein Extraction Kit (ThermoFisher Scientific, Waltham, MA USA). Proteins are separated by SDS-PAGE and transferred to nitrocellulose membranes. Primary antibodies used are rabbit anti-claudin-3 (ab15102), rabbit anti-claudin-5 (ab15106), rabbit anti-claudin-6 (ab99226), rabbit anti-JAM (ab125886), rabbit anti-occludin (ab222691, 1:200, Abcam, Cambridge, MA USA), and mouse anti-β-actin (66009, 1:1000, Proteintech, Rosemont, IL USA). Secondary antibodies used are HRP-conjugated goat anti-mouse (SA00001, 1:2500, Proteintech) and goat anti-rabbit (7074, 1:2500, Cell Signaling Technology).
Western Blot examined and quantified the tight junction proteins in brain tissues.

[1] = test system: blood-brain barrier (BBB); assay: Microcatheter 3% EA-mediated delivery of CD3-positive CAR T cells, confocal imaging (Experiment 26); assay type: in vivo; conditions: microcatheter 3% EA + 2×10^6 CAR T cells, normal rat
Method: Similarly, the efficacy of microcatheter placement and infusion of an optimal 3% EA-mediated delivery of CAR T cells is validated. The CAR T cells are human CD3 positive, which can be analyzed by immunohistochemistry staining using rabbit anti-human CD3 primary antibody and Alexa Fluor 647-labeled goat anti-rabbit IgG secondary antibody to detect CD3 expression on the surface of CAR T cells by confocal imaging, as shown in FIG. 19. […] The confocal imaging staining is performed to detect the spreading of CD3-positive CAR T cells. The blue color comes from the DAPI-stained nuclei. The red color is Alexa Fluor 647-labeled […], as only the human CAR T cells are CD3 positive.

[2] = test system: intracranial HER2-positive 4T1 breast cancer; conditions: IA ethyl alcohol with IV Trastuzumab vs IV Trastuzumab, mice with intracranial HER2-positive 4T1 tumor
brain tissues = conditions: IA 0.3% ethyl alcohol vs normal untreated mouse
Method: Ultrathin sections of the brains previously processed with Pelco BioWave Pro (Pelco, Fresno, CA USA) are cut at 99 nm and collected on 200-mesh copper grids. The grids are post-stained in uranyl acetate (0.2%) and filtered for 15 min. Grids are further stained with lead citrate and filtered for 5 min. The Tecnai Spirit G2TEM (Nanoscience Initiative, Nicholas Terrace, New York, USA) with an installed Mega View camera is used to image the samples. The micrographs are illustrated in FIG. 5 of the drawings. The scale bar is 2 μm.

[3] = test system: blood-brain barrier (BBB)
Text: EB dye is used as the non-BBB permeable substance. […] Photos of the perfused brain tissues are taken for observations and comparisons.
EB dye is used as a non-BBB-permeable substance. […] Photographs of the perfused brain tissues harvested at different time points are taken for observation and comparison, as shown in FIG. 9 of the drawings.
As a negative control, photographs of perfused brain tissues were taken from the following animals: the normal untreated mice; the mice were intravenously administered 2% EB; and the mice received the same dose of 0.3% EA mixed with a 2% EB solution intravenously as applied via intracardiac injection.

[4] = test system: blood-brain barrier (BBB); remark: listed apart in the source
Method: Photographs of the rats in the prone and supine positions are taken for observation and further analysis.
Experimental rats are treated with varying concentrations of IA EA (in room temperature, 300 μl 5%, 3%, and 1% EA infused slowly in 1 minute, respectively) and are applied through the arterial catheter placed into the left internal carotid artery.
Experimental rats are treated with varying concentrations of IA EA (in room temperature, 300 μl 0.3%, 0.1%, and 0.01% EA infused slowly in 1 minute, respectively). They are applied through the arterial catheter placed into the left internal carotid artery.
The rapid visualization of the extravasated EB/albumin conjugate distribution after IA catheter delivery of 3% EA by fluorescence from EB dye by confocal microscopy is performed.
The fluorescence from EB dye permits the rapid visualization of extravasated EB/albumin conjugate distribution after IA catheter delivery of 3% EA. An untreated rat group is used as a control. IA 3% EA+2% EB solution treatment is used as the testing group.
The photographs of cryostatic brain sections from an untreated rat are stained with DAPI to illustrate the background nuclear staining under confocal imaging, respectively. The photo-/micrographs and magnified confocal images of the brain from the rat treated with IA 3% EA+2% EB solution are obtained for studies and comparison. The micrograph of the whole brain section is scanned by confocal microscopy to obtain the confocal images. The confocal images are further enlarged for observation.

[5] = test system: blood-brain barrier (BBB); conditions: intracardiac EA 3%, 1%, 0.3%, 0.1%, and 0.01% in 2% EB, rats
Text: Set up the ultrasound imaging system before anesthetizing the rats; to anesthetize the rats in an induction chamber using 3-4% isoflurane in 100% oxygen at a rate of 0.2-0.5 L/min; to confirm proper anesthetization before performing imaging by pinching the toe, rolling the rats. • 2. Remove the fur over the thorax area using hair removal cream. • 3. Place the experimental animal on the imaging table in the supine position and secure both the upper and lower limbs with adhesive tape to avoid body movement during the procedure. • 4. Clean up the skin of the thorax area using a 10% povidone/iodine swab followed by a 70% ethanol swab. Apply a thick layer of gel to the thorax area of the animal. • 5. Mount the transducer and adjust the position until the left ventricle is clearly visible. • 6. […] To visualize pulsating blood, keep a small air column in the syringe; advance the syringe towards the animal thorax, adjust the needle trajectory using the ultrasound guidance, and enter the left ventricle, and to complete the IC injection within 30 seconds. • 7. Withdraw the needle, release that rat, and monitor until complete recovery from anesthesia
The rats are treated with varying concentrations of EA via intracardiac injection. […] Sham control (without treatment as negative control) is included in this experiment.

[6] = test system: blood-brain barrier (BBB); conditions: rats
Text: In this experiment, the microcatheter is placed in the left internal carotid artery (ICA). The left internal carotid artery (ICA) leads to the left hemisphere of the brain. (That is, the selected intracerebral artery is the left internal carotid artery (ICA); and the target area is the left hemisphere of the brain.)
Evans blue (EB) dye is used as the non-BBB permeable substance.
To validate the limited, localized, and targeted BBB opening mediated by intra-arterial EA around the area supplied by the corresponding artery, a microcatheter is inserted from the CCA, proceeded along the ICA, positioned at the origin of the MCA, and infused with 300 μL of a 3% EA in a 2% EB dye solution. The effect of the compromised BBB can be determined by observing the penetration of the EB dye (doesn't pass through the BBB in normal physical condition).

CCO [ethyl alcohol]
time for which tight junction proteins in the BBB are reduced (tight junction proteins): about 120 minutes | delivery of CAR T cells into brain tissue [1]: can deliver BBB-impermeable CAR T cells into normal rat brain tissue | Trastuzumab brain tumor entry (integrated optical density, confocal imaging) [2]: significantly enhance | ultrastructure of brain tissues (TEM) (brain tissues): many open spaces | extravasated EB dye in brain after intravenous EA ([3]; 0.3% EA mixed with 2% EB given intravenously (negative control route), mice): No extravasated EB dye in any parts of the brain | BBB opening at 0 min time point ([3]; IA 0.3% EA then IV 2% EB, euthanized immediately, mice): immediate, homogeneous, and highly efficient BBB opening | level of blue color observed in the brain as lagged time of EB administration increased ([3]; IA 0.3% ethyl alcohol, EB at 15, 60, 120, 240 min after, mice): decreased | interval window of the breached BBB ([3]; IA EA): about 2 hours | adverse effects ([3]; IA/intracardiac 0.3% EA, mice): occasional adverse effects, such as mild epilepsy, but no moderate to severe epilepsy and sudden death were observed | duration of transient BBB opening ([3]; iv, 0.25 h): ≤ 120 min | extravasated EB at the lowest concentration of EA ([4]; 300 μl 0.01% EA in 1 minute via left ICA catheter, rats): can still be visualized in the left hemisphere of the brain tissue | extravasated EB in coronal sections ([4]; 300 μl 5%, 3%, and 1% EA in 1 minute via left ICA catheter, 2 hours after, rats): spreading out homogeneously through almost the whole section of the left hemisphere of the brain | autofluorescence from EB/albumin by confocal microscopy ([4]; IA 3% EA+2% EB, whole brain section, left hemisphere, rat): massive spreading of autofluorescence | location of extravasated EB ([4]; left-side IA catheter, EA+2% EB, Fisher 344 rats): inside the left vitreous humor, but not inside the right | tinted blue color (extravasated Evans blue) in brain [5]: observed in all treatment groups | extent of BBB opening (EB dye penetration) ([6]; 300 μL 3% EA in 2% EB, microcatheter at origin of MCA): site-specific BBB opening, which is limited to the area supplied by the MCA only | delivery of EB dye to target area ([6]; EA 0.1% to 0.5%, microcatheter in left ICA): can be used to deliver EB dye to the left hemisphere of the brain
